Test system: 156681-154-R-J1 tumor spheroid viability
Assay: Anticancer human tumor 156681-154-R-J1 patient-derived melanoma cell line growth inhibition
Conditions: spheroids with HUVEC and MSC; for IC50: curve of first compound; for viability, T/C: stronger effect = lower value
Description: Multicellular complex tumor spheroid response to DNA repair inhibitors in combination with DNA-damaging drugs
This study explores the anticancer activities of DNA-damaging drugs and inhibitors of DNA damage repair, both as single agents and in combinations. Complex tumor spheroids comprised of malignant cells, endothelial cells and mesenchymal stem cells served as an in vitro model for human solid tumors. This model system incorporates physiologically relevant features and patient-derived or established malignant cell lines with clinically relevant genetic alterations from many tumor types. Twenty-six patient-derived or established malignant cell lines were evaluated representing sarcoma, melanoma, small cell lung cancer (SCLC), non-small cell lung cancer (NSCLC), as well as bladder, ovarian and pancreatic cancers. The concentration ranges selected for each drug and investigational agent were based upon clinically achievable concentrations if the clinical Cmax of the agent was known.
Compounds. The drugs and compounds olaparib (NSC753686), talazoparib (NSC767125), berzosertib (NSC777718), elimusertib (NSC800525), nedisertib (NSC802822), VX-984 (NSC792969), AZD-1390 (NSC803789), temozolomide (NSC362856), topotecan (NSC609699), trabectedin (NSC813783), staurosporine (NSC755774), and gemcitabine (NSC613327) were obtained from the National Cancer Institute (NCI) Developmental Therapeutics Program Chemical Repository. The FDA-approved anticancer drug set is available from the Developmental Therapeutics Program at https://dtp.cancer.gov/organization/dscb/obtaining/available_plates.htm. […] The stock solutions were prepared in dimethyl sulfoxide (DMSO, Sigma-Aldrich, St. Louis, MO, cat. D2650) at 400-fold the tested concentration and stored at -70 degrees C. Prior to their use, the stock solutions were diluted in fresh medium and the final DMSO concentration in the assay was 0.25% (v/v). All drugs and investigational agents were tested over a range starting from a high concentration at or near the clinical Cmax and decreasing in half-log increments. If the clinical Cmax for an agent had not been determined, the highest concentration tested was 10 microM.
Cell Lines. The patient-derived cancer cell (PDC) lines: 156681-154-R-J1-PDC, 283228-195-R-J1-PDC, 287954-098-R-J1-PDC, 292921-168-R-J2-PDC, 349418-098-R-PDC, 425362-245-T-J1-PDC, 556581-035-R-J1-PDC, and BL0293-F563-PDC were received from the NCI Patient-Derived Models Repository (PDMR, https://pdmr.cancer.gov). The established cell lines HS-SY-2 (RRID:CVCL_8719), MPNST, and SYO-1 (RRID:CVCL_7146) were obtained from the Sloan Kettering Institute. The alveolar soft parts sarcoma cell line ASPS-1 (RRID:CVCL_S738) was established at the NCI and grown from internal seed stocks. The following established cell lines were purchased from the American Type Culture Collection (ATCC, Manassas, VA): G-401 (ATCC, cat. CRL-1441, RRID:CVCL_0270), SW982 (ATCC, cat. HTB-93, RRID:CVCL_1734), VA-ES-BJ (ATCC, cat. CRL-2138, RRID:CVCL_1785), NCI-H719 (ATCC, cat. CRL-5837, RRID:CVCL_1582), NCI-H196 (ATCC, cat. CRL-5823, RRID:CVCL_1509), NCI-H841 (ATCC, cat. CRL-5845, RRID:CVCL_1595), NCI-H1618 (ATCC, cat. CRL-5879, RRID:CVCL_1480), NCI-H1876 (ATCC, cat. CRL-5902, RRID:CVCL_1503), DMS 114 (ATCC, cat. CRL-2066; RRID:CVCL_1174), NCI-H211 (ATCC, cat. CRL-5824; RRID:CVCL_1529), and SW 1271 (ATCC, cat. CRL-2177, RRID:CVCL_1716). The small cell lung cancer cell line COR-L88 was purchased from Sigma-Aldrich (cat. 92031917-1VL, RRID:CVCL_1141). The non-small cell lung cancer cell lines NCI-H226 (RRID:CVCL_1544) and NCI-H322M (RRID:CVCL_1557) were established at the NCI and grown from internal seed stocks. Pooled donor human umbilical vein endothelial cells (HUVEC, Lonza, cat. CC-2519) and human mesenchymal stem cells (hMSC, Lonza, cat. PT-2501) were purchased from Lonza (Walkersville, MD).
Cell Culture. All cells were maintained in an incubator at 37 degrees C and 5% CO2 with 95% humidity. […]
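Note: spheroids exposed to compounds for 7 days before readout.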
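Throughout, for viability, T/C: percent of vehicle control viability where 100% = DMSO-treated spheroids.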

CC(C)n1c(=O)n(C)c2cnc3cc(F)c(-c4ccc(OCCCN5CCCCC5)nc4)cc3c21 + COc1cc2c(cc1O)CCNC21CSC2c3c(OC(C)=O)c(C)c4c(c3C(COC1=O)N1C(O)C3Cc5cc(C)c(OC)c(O)c5C(C21)N3C)OCO4
IC50 (second compound 30 pM): > 10 µM | IC50 (second compound 94.9 pM): > 10 µM | IC50 (second compound 0.0003 µM): 4.75 µM | IC50 (second compound 0.000949 µM): < 0.0316 µM | IC50 (second compound 0.003 µM): < 0.0316 µM | viability, T/C (second compound 30 pM, first compound 0.0316 µM): 101% | viability, T/C (second compound 30 pM, first compound 0.1 µM): 120% | viability, T/C (second compound 30 pM, first compound 0.316 µM): 87.2% | viability, T/C (second compound 30 pM, first compound 1 µM): 105% | viability, T/C (second compound 30 pM, first compound 3.16 µM): 104% | viability, T/C (second compound 30 pM, first compound 10 µM): 90.3% | viability, T/C (second compound 94.9 pM, first compound 0.0316 µM): 106% | viability, T/C (second compound 94.9 pM, first compound 0.1 µM): 91.1% | viability, T/C (second compound 94.9 pM, first compound 0.316 µM): 103% | viability, T/C (second compound 94.9 pM, first compound 1 µM): 95% | viability, T/C (second compound 94.9 pM, first compound 3.16 µM): 108% | viability, T/C (second compound 94.9 pM, first compound 10 µM): 73.5% | viability, T/C (second compound 0.0003 µM, first compound 0.0316 µM): 66.9% | viability, T/C (second compound 0.0003 µM, first compound 0.1 µM): 63.5% | viability, T/C (second compound 0.0003 µM, first compound 0.316 µM): 61.7% | viability, T/C (second compound 0.0003 µM, first compound 1 µM): 65.7% | viability, T/C (second compound 0.0003 µM, first compound 3.16 µM): 85.7% | viability, T/C (second compound 0.0003 µM, first compound 10 µM): 15.9% | viability, T/C (second compound 0.000949 µM, first compound 0.0316 µM): 6.13% | viability, T/C (second compound 0.000949 µM, first compound 0.1 µM): 2.85% | viability, T/C (second compound 0.000949 µM, first compound 0.316 µM): 4.29% | viability, T/C (second compound 0.000949 µM, first compound 1 µM): 3.82% | viability, T/C (second compound 0.000949 µM, first compound 3.16 µM): 4.41% | viability, T/C (second compound 0.000949 µM, first compound 10 µM): 0.77% | viability, T/C (second compound 0.003 µM, first compound 0.0316 µM): 0.23% | viability, T/C (second compound 0.003 µM, first compound 0.1 µM): 0.23% | viability, T/C (second compound 0.003 µM, first compound 0.316 µM): 0.24% | viability, T/C (second compound 0.003 µM, first compound 1 µM): 0.22% | viability, T/C (second compound 0.003 µM, first compound 3.16 µM): 0.18% | viability, T/C (second compound 0.003 µM, first compound 10 µM): 0.24%
